Patent US5763435A, “Sulfate conjugates of ursodeoxycholic acid, and their beneficial use in inflammatory disorders” (priority 1995, dated 1998)
Where “and” joins values, the source holds several entries; their conditions need not be identical. Identical values can stand only once.

Assays:
Format in all cases: in vivo, Sprague-Dawley rats
[1] = test system: bile-flow; assay: Bile-flow and bile acid secretion during i.v. infusion; settings: for Bile flow, maximum / Bile salt output (biliary bile acid secretion rate), maximum: i.v. infusion 0.5, 1.0, 2.0 μmol/min/100 g, mean ± SEM, six animals; for Apparent choleretic activity (slope of regression line): bile acid secretion rate vs bile-flow
Description: (§1) Adult male Sprague-Dawley rats (body weight 200-230 g) were anesthetized by an intraperitoneal injection of pentobarbital (Nembutal, 7.5 mg/100 g body weight), and maintained under sedation by additional doses. The right jugular vein and the common bile duct were cannulated using PE-50 polyethylene tubing (Clay-Adams, Parsippany, N.J.). Body temperature was maintained throughout the experiment at 37° C. using a rectal probe and a thermostatically controlled heating pad (Harvard Apparatus Co., Inc., Millis, Mass.). Saline was infused at a rate of 1.0 ml/h using a Harvard pump (Harvard Apparatus Co., Inc.) into the jugular vein for a control period of 2h. After collecting two 10 minute bile samples for base-line analysis, the bile acids were individually infused intravenously (i.v.) for 30 minutes in stepwise increasing doses (0.5, 1.0, and 2.0 μmol/min/100 g body weight). Bile acid solutions were prepared in 3% human albumin in 0.45% saline. Six animals were used for each experiment and bile was collected every 10 minutes into preweighed tubes. At the end of the experiment, blood was obtained by cardiac puncture, and urine was obtained by aspiration of the bladder. All biological specimens were stored at -20° C. This animal study protocol (#1 B 10044) was approved by the Bioethics committee of the Children's Hospital Medical Center (Cincinnati, Ohio).
(§2) Bile volume was determined gravimetrically assuming a density of 1 g/ml. Total 3α-hydroxy bile acid concentration in the bile was measured enzymatically before solvolysis (nonsulfated bile acids) and after solvolysis (total bile acids) (Mashige, F., et al., Direct spectrometry of total bile acids in serum. Clin. Chem. 27: 1352-1356 (1981)). The bile acid output was calculated by multiplying the rate of bile-flow by the bile acid concentration. Biliary phospholipids were determined by an enzymatic procedure based on the choline oxidase method (Nippon Shoji Kaisha, Ltd., Osaka, Japan) (Grantz, D., et al., Enzymatic measurement of choline-containing phospholipids in bile. J. Lipid Res. 22: 273-276 (1981)). Cholesterol was also measured enzymatically (Boehringer Mannehim, Indianapolis, Ind.) (Fromm, H., et al., Use of a simple enzymatic assay for cholesterol analysis in human bile. J. Lipid Res. 21: 259-261 (1980)).
(§3) Results were expressed as mean±standard error of mean (SEM). Bile-flow and biliary lipid output were expressed as μl /min/g liver and nmol/min/g liver, respectively. Statistical analysis was made using INSTAT program (Graphpad Software Inc., San Diego, Calif.). Parametric data among groups were analyzed using Student's t-test. The statistical comparisons between the different groups were made by one-way analysis of variance (ANOVA). […] Linear regression analysis was performed. The choleretic activity of each bile acid was determined from the slope of regression line of the correlation between the bile acid secretion rate and bile-flow and was expressed as […]. Comparisons between slopes were made by one-way ANOVA.

[2] = test system: biliary lipid secretion; assay: Biliary lipid (cholesterol, phospholipid) secretion during i.v. infusion; settings: for Cholesterol output, maximal change / Phospholipid output, maximal change: mean ± SEM, six animals
Description: as §1, §2, §3

[3] = test system: bile acids secreted in bile; assay: Biliary bile acid composition during i.v. infusion (GC-MS); settings: for Further hydroxylation (in words): GC-MS of bile
Description: as §1
GC-MS was carried out on either a VG Autospec Q magnetic sector instrument or a Finnigan 4635 quadruple GC-MS-DS instrument housing identical GC columns and operated under the same chromatographic conditions. Electron ionization (70 eV) mass spectra were recorded over the mass range 50 to 1000 Da/e by repetitive scanning of the eluting components.
For the determination of hepatic biotransformation of the infused bile acid, bile collections from the six animal were pooled and biliary bile acids were determined by GC-MS after extraction, solvolysis, hydrolysis, and derivatization. Quantification of bile acids was achieved using GC, by comparing the peak height response of the individual bile acid with the peak height response obtained from the internal standard, nordeoxycholic acid added to the initial sample of bile. Identification of a bile acid was made on the basis of the retention index relative to a homologous series of n-alkanes, referred to as the methylene unit value (MU) and the fragmentation pattern of the mass spectrum was compared with authentic standards. A list of over 100 mass spectra of authentic bile acid standards and retention indices was recently compiled as a reference source (Lawson, A. M., et al, Mass spectrometry of bile acids, The Bile Acids, Vol. 4, Methods and Applications, pp. 167-267 (1988)).

SMILES	Bile flow, maximum [1] [μl/min/g liver]	Bile salt output (biliary bile acid secretion rate), maximum [1]	Apparent choleretic activity (slope of regression line) ([1]; i.v. infusion) [µL/µmol]	Biliary cholesterol secretion (in words) [2]	Biliary phospholipid secretion (in words) [2]	Cholesterol output, maximal change [2]	Phospholipid output, maximal change [2] [nmol/min/g liver]	Relative % composition in bile: CA ([3]; 20-30 mins) [%]	Relative % composition in bile: CDCA ([3]; 20-30 mins) [%]	Relative % composition in bile: DCA ([3]; 20-30 mins) [%]	Relative % composition in bile: MCA ([3]; 20-30 mins) [%]	Relative % composition in bile: UDCA ([3]; 20-30 mins) [%]	Relative % composition in bile: α-MCA ([3]; 20-30 mins) [%]	Relative % composition in bile: β-MCA ([3]; 20-30 mins) [%]	Relative % composition in bile: CA ([3]; 50-60 mins) [%]	Relative % composition in bile: CDCA ([3]; 50-60 mins) [%]	Relative % composition in bile: DCA ([3]; 50-60 mins) [%]	Relative % composition in bile: MCA ([3]; 50-60 mins) [%]	Relative % composition in bile: UDCA ([3]; 50-60 mins) [%]	Relative % composition in bile: α-MCA ([3]; 50-60 mins) [%]	further results
C[C@H](CCC(=O)O)[C@H]1CC[C@H]2[C@@H]3[C@@H](OS(=O)(=O)O)C[C@@H]4C[C@H](O)CC[C@]4(C)[C@H]3CC[C@]12C [UDCA-7S, ursodeoxycholic acid 7-sulfate]	5.83 ± 0.31	255.40 ± 18.20 nmol/min/g liver and 255.4±18.2 nmol/min/g liver	15 ± 1	cholesterol secretion was maintained	increased significantly	1.76 ± 0.23 nmol/min/g liver and 1.76±0.21 nmol/min/g liver	15.00 ± 1.70	20.2	1.7	2.3	1.3	61.3	2.5	10.7	7.7	0.6	0.7	0.6	83.6	0.9	Relative % composition in bile: β-MCA ([3]; 50-60 mins): 5.9%; Relative % composition in bile: CA ([3]; 80-90 mins): 9.9%; Relative % composition in bile: CDCA ([3]; 80-90 mins): 0.7%; Relative % composition in bile: DCA ([3]; 80-90 mins): 1.2%; Relative % composition in bile: MCA ([3]; 80-90 mins): 0.8%; Relative % composition in bile: UDCA ([3]; 80-90 mins): 78.8%; Relative % composition in bile: α-MCA ([3]; 80-90 mins): 1.3%; Relative % composition in bile: β-MCA ([3]; 80-90 mins): 7.4%; Further hydroxylation (in words) [3]: neither UDCA-7S nor UDCA-disulfatewere hydroxylated
C[C@H](CCC(=O)O)[C@H]1CC[C@H]2[C@@H]3[C@@H](OS(=O)(=O)O)C[C@@H]4C[C@H](OS(=O)(=O)O)CC[C@]4(C)[C@H]3CC[C@]12C [UDCA-DS, ursodeoxycholic acid 3,7-disulfate]	5.92 ± 0.21	222.40 ± 24.30 nmol/min/g liver and 222.4±24.3 nmol/min/g liver	16 ± 1	significantly reduced the biliary cholesterol output	significant reduction in biliary phospholipids	0.37 ± 0.07 nmol/min/g liver and 0.37±0.12 nmol/min/g liver	2.50 ± 0.30	24.5	2.5	2.1	3.2	54.6	3.4	9.7	15.3	0.7	1.2	2.2	70.7	2.2	Relative % composition in bile: β-MCA ([3]; 50-60 mins): 6.7%; Relative % composition in bile: CA ([3]; 80-90 mins): 10.6%; Relative % composition in bile: CDCA ([3]; 80-90 mins): 0.9%; Relative % composition in bile: MCA ([3]; 80-90 mins): 1.4%; Relative % composition in bile: UDCA ([3]; 80-90 mins): 79.1%; Relative % composition in bile: α-MCA ([3]; 80-90 mins): 2.6%; Relative % composition in bile: β-MCA ([3]; 80-90 mins): 6.5%; Further hydroxylation (in words) [3]: neither UDCA-7S nor UDCA-disulfatewere hydroxylated
C[C@H](CCC(=O)O)[C@H]1CC[C@H]2[C@@H]3[C@@H](O)C[C@@H]4C[C@H](OS(=O)(=O)O)CC[C@]4(C)[C@H]3CC[C@]12C [UDCA-3S, ursodeoxycholic acid 3-sulfate]	3.34 ± 0.13	138.90 ± 11.80 nmol/min/g liver and 138.9±11.8 nmol/min/g liver	13 ± 1	significantly reduced the biliary cholesterol output	significant reduction in biliary phospholipids	0.40 ± 0.02 nmol/min/g liver and 0.40±0.05 nmol/min/g liver	4.00 ± 0.50	36.0	4.6	2.5	4.9	33.3	6.2	12.4	14.9	1.9	1.0	1.5	70.6	2.7	Choleretic effect / order of maximum bile-flow (in words) ([1]; i.v. infusion): less effective in stimulating bile-flow than unconjugated UDCA; Relative % composition in bile: others ([3]; 20-30 mins): 5.2%; Relative % composition in bile: others ([3]; 50-60 mins): 11.5%; Relative % composition in bile: β-MCA ([3]; 50-60 mins): 7.4%; Relative % composition in bile: CA ([3]; 80-90 mins): 18.2%; Relative % composition in bile: CDCA ([3]; 80-90 mins): 2.5%; Relative % composition in bile: DCA ([3]; 80-90 mins): 1.3%; Relative % composition in bile: MCA ([3]; 80-90 mins): 2.0%; Relative % composition in bile: UDCA ([3]; 80-90 mins): 67.7%; Relative % composition in bile: others ([3]; 80-90 mins): 11.2%; Relative % composition in bile: α-MCA ([3]; 80-90 mins): 3.0%; Relative % composition in bile: β-MCA ([3]; 80-90 mins): 5.2%; Further hydroxylation (in words) [3]: metabolized by further hydroxylation, most probably in the side-chain
